In publication PMC7497412 (RSC Advances, 2020):
Converted amounts (≈) assume the structure as drawn.

Tested on: M. tb V2475/MDR
Assay: microbe, parasite or virus in culture
Format: cell-based
Conditions: Mycobacterium tuberculosis, read-out: M. tb MIC V2475/MDR

First: O=C(NC12CC3CC(CC(C3)C1)C2)c1cc(=O)c2c(Br)cccc2[nH]1 [8i, N-(1-Adamantanyl)-5-bromo-4-oxo-1,4-dihydroquinoline-2-carboxamide]
Second: O=C(NC12CC3CC(CC(C3)C1)C2)c1ccc2ccccc2c1 [13d, N-(1-Adamantanyl)-2-naphthamide]
The MIC of the first is 1.5-fold higher: 9.97 µM (≈ 4 µg/mL) for the first, 6.55 µM (≈ 2 µg/mL) for the second.

First: O=C(NC1CCCCCCC1)c1ccc2ccccc2c1 [13c, N-Cyclooctyl-2-naphthamide]
Second: O=C(Nc1nc(-c2ccc(Cl)cc2Cl)cs1)C12CC3CC(CC(C3)C1)C2 [18b, N-(4-(2,4-Dichlorophenyl)thiazol-2-yl)adamantane-1-carboxamide]
The MIC of the first is 2.8-fold lower: 7.11 µM (≈ 2 µg/mL) for the first, 19.6 µM (≈ 8 µg/mL) for the second.

Tested on: M. tb KZN494/MDR
Assay: microbe, parasite or virus in culture
Format: cell-based
Conditions: Mycobacterium tuberculosis, read-out: M. tb MIC KZN494/MDR

`O=C(NC12CC3CC(CC(C3)C1)C2)c1cc(=O)c2c(Br)cccc2[nH]1` [8i, N-(1-Adamantanyl)-5-bromo-4-oxo-1,4-dihydroquinoline-2-carboxamide] and `O=C(NC12CC3CC(CC(C3)C1)C2)c1ccc2ccccc2c1` [13d, N-(1-Adamantanyl)-2-naphthamide] cannot be ordered by MIC: 9.97 µM (≈ 4 µg/mL) for the first, 6.55 to 13.1 µM (≈ 2 to 4 µg/mL) for the second.

`O=C(NC1CCCCCCC1)c1ccc2ccccc2c1` [13c, N-Cyclooctyl-2-naphthamide] and `O=C(Nc1nc(-c2ccc(Cl)cc2Cl)cs1)C12CC3CC(CC(C3)C1)C2` [18b, N-(4-(2,4-Dichlorophenyl)thiazol-2-yl)adamantane-1-carboxamide] are within 1.5-fold of each other in MIC: 7.11 µM (≈ 2 µg/mL) for the first, 9.82 µM (≈ 4 µg/mL) for the second.

Tested on: M. tb R506/XDR
Assay: microbe, parasite or virus in culture
Format: cell-based
Conditions: Mycobacterium tuberculosis, read-out: M. tb MIC R506/XDR

Compared with `O=C(NC12CC3CC(CC(C3)C1)C2)c1cc(=O)c2c(Br)cccc2[nH]1` [8i, N-(1-Adamantanyl)-5-bromo-4-oxo-1,4-dihydroquinoline-2-carboxamide], `O=C(NC12CC3CC(CC(C3)C1)C2)c1ccc2ccccc2c1` [13d, N-(1-Adamantanyl)-2-naphthamide] is 1.5-fold lower in MIC: 4.98 µM (≈ 2 µg/mL) for the first, 3.27 µM (≈ 0.999 µg/mL) for the second.

Compared with `O=C(NC1CCCCCCC1)c1ccc2ccccc2c1` [13c, N-Cyclooctyl-2-naphthamide], `O=C(Nc1nc(-c2ccc(Cl)cc2Cl)cs1)C12CC3CC(CC(C3)C1)C2` [18b, N-(4-(2,4-Dichlorophenyl)thiazol-2-yl)adamantane-1-carboxamide] is higher in MIC: 3.55 µM (≈ 0.999 µg/mL) for the first, 4.91 to 9.82 µM (≈ 2 to 4 µg/mL) for the second.

Tested on: M. tb TF274/XDR
Assay: microbe, parasite or virus in culture
Format: cell-based
Conditions: Mycobacterium tuberculosis, read-out: M. tb MIC TF274/XDR

Compared with `O=C(NC12CC3CC(CC(C3)C1)C2)c1cc(=O)c2c(Br)cccc2[nH]1` [8i, N-(1-Adamantanyl)-5-bromo-4-oxo-1,4-dihydroquinoline-2-carboxamide], `O=C(NC12CC3CC(CC(C3)C1)C2)c1ccc2ccccc2c1` [13d, N-(1-Adamantanyl)-2-naphthamide] is 1.5-fold lower in MIC: 4.98 µM (≈ 2 µg/mL) for the first, 3.27 µM (≈ 0.999 µg/mL) for the second.

`O=C(NC1CCCCCCC1)c1ccc2ccccc2c1` [13c, N-Cyclooctyl-2-naphthamide] and `O=C(Nc1nc(-c2ccc(Cl)cc2Cl)cs1)C12CC3CC(CC(C3)C1)C2` [18b, N-(4-(2,4-Dichlorophenyl)thiazol-2-yl)adamantane-1-carboxamide] are within 1.5-fold of each other in MIC: 3.55 µM (≈ 0.999 µg/mL) for the first, 4.91 µM (≈ 2 µg/mL) for the second.
